Data reported in patent US4547502A, “Dihydropyridines and their use in treating cardiac conditions and hypertension” (Pfizer Inc., priority 1982, dated 1985).

Test system: spirally cut strips of rat aorta
Test: Inhibition of calcium-induced contraction of isolated rat aorta strips (concentration required to reduce the response by 50%)
Assay type: cell-based
Conditions: 0.75 h, in vitro, 45 millimolar potassium, contraction by calcium chloride, final calcium 2 millimolar, retest after 45 minutes with compound present, read-out: IC50 (molar concentration of the compounds required to reduce the response by 50%)
Experimental: The ability of the compounds to inhibit the movement of calcium into the cell is shown by their effectiveness in reducing the response of isolated […] to an increase in calcium ion concentration in vitro. The test is performed by mounting spirally cut strips of rat aorta with one end fixed and the other attached to a force tranducer. The tissue is immersed in a bath of physiological saline solution containing potassium ions at a concentration of 45 millimolar and no calcium. Calcium chloride is added to the bath with a pipette to give a final calcium ion concentration of 2 millimolar. The change in tension caused by the resulting contraction of the tissue is noted. The bath is drained and replaced with fresh saline solution and, after 45 minutes, the test is repeated with the particular compound under test present in the saline solution. The concentration of compound required to reduce the response by 50% is recorded.

IC50 | Compound
100 nM | CCOC(=O)C1=C(COCCN2CCN(c3nc(N)nn3C)CC2)NC(C)=C(C(=O)OC)C1c1ccccc1Cl (single isomer, unassigned) [Example 6 (more polar isomer), 2-[2-(4-{3-amino-1-methyl-1,2,4-triazol-5-yl}-piperazin-1-yl)ethoxymethyl]-4-(2-chlorophenyl)-3-ethoxycarbonyl-5-methoxycarbonyl-6-methyl-1,4-dihydropyridine hemihydrate]
38 nM | CCOC(=O)C1=C(COCCN2CCN(c3nc(N)n[nH]3)CC2)NC(C)=C(C(=O)OC)C1c1ccccc1Cl (stereo not shown) [Example 5, 2-{2-[4-(5-Amino-1,2,4-triazol-3-yl)piperazine-1-yl]ethoxymethyl}-4-(2-chlorophenyl)-3-ethoxycarbonyl-5-methoxycarbonyl-6-methyl-1,4-dihydropyridine, bis-maleate hemihydrate]

The remaining lines, values behind:

Compound | IC50
CCOC(=O)C1=C(COCCN2CCN(C3=NCCC3)CC2)NC(C)=C(C(=O)OC)C1c1ccccc1Cl (stereo not shown) [Example 1, 2-[2-(4-(1-Pyrrolin-2-yl)-piperazin-1-yl)ethoxymethyl]-4-(2-chlorophenyl)-3-ethoxycarbonyl-5-methoxycarbonyl-6-methyl-1,4-dihydropyridine] | 141 nM
CCOC(=O)C1=C(COCCN2CCN(C3=NCCN3)CC2)NC(C)=C(C(=O)OC)C1c1ccccc1Cl (stereo not shown) [Example 2] | 100 nM
CCOC(=O)C1=C(COCCN2CCN(c3nccc(=O)[nH]3)CC2)NC(C)=C(C(=O)OC)C1c1ccccc1Cl (stereo not shown) [Example 3] | 36 nM
CCOC(=O)C1=C(COCCN2CCN(c3nccs3)CC2)NC(C)=C(C(=O)OC)C1c1ccccc1Cl (stereo not shown) [Example 4] | 15 nM
CCOC(=O)C1=C(COCCN2CCN(c3nc(N)n(C)n3)CC2)NC(C)=C(C(=O)OC)C1c1ccccc1Cl (stereo not drawn) [Example 6 (least polar isomer), 2-[2-(4-{5-amino-1-methyl-1,2,4-triazol-3-yl}-piperazin-1-yl)ethoxymethyl]-4-(2-chlorophenyl)-3-ethoxycarbonyl-5-methoxycarbonyl-6-methyl-1,4-dihydropyridine] | 26 nM
